Measured values from patent publication US20260130857A1, “SUSTAINED-RELEASE INJECTABLE COMPOSITION FOR TREATING OR PREVENTING INFLAMMATORY DISEASE, AND METHOD FOR PREPARING SAME” (INVENTAGE LAB INC., priority 2022, published 2026).

Columns and labels:
[1] = Body weight measurement in MIA-induced osteoarthritis trial; format: in vivo; details: MIA rats, single IA dose: CBD solution 300 ug/joint, Examples 2 and 4 2 mg/joint, Example 3 1 mg/joint; test period
Protocol: (§1) After acclimatization, rats were divided into groups, and the area around the left lower limb knee joint of each rate was shaved clean. Then, MIA (monosodium iodoacetate, Sigma, USA), an osteoarthritis-inducing substance, was prepared at a concentration of 60 mg/mL in 0.9% sterile saline and 50 μL was administered intra-articularly to each rat using a BD Ultra-Fine™ II Insulin Syringe. The right knee joint was administered only the same volume of 0.9% sterile saline. Two weeks after MIA administration, the test substances shown in Table 5 below were administered intra-articularly, and the therapeutic efficacy thereof was evaluated.
(§2) CBD solution and Examples 2 to 4 were each administered to the left knee joint cavity 14 days after MIA administration, and only the same amount of 0.9% sterile saline was administered to the right knee joint. The normal control and positive control groups were also administered the same amount of 0.9% saline.
However, when CBD was administered, it was confirmed that the body weight gain increased compared to that in the positive control as feed intake activity was improved due to a decrease in pain. This tendency was particularly significant in Examples 3 and 4.

[2] = Rat pharmacokinetic test, single subcutaneous injection; design: species or system SD rats; details: male, SD, in vivo, CBD solution 300 μg/head, IVL5005 9 mg/head, rat serum, read-out: blood CBD concentration
Source text: The experimental conditions for conducting the rat pharmacokinetic test are as follows:
CBD isolate solution was used as a control. As experimental animals, 6-week-old male SD rats were purchased from Coretech, acclimated for a week, and then tested. The experimental diet was a general feed for experimental animals (Orient), and the rats were raised with free access to water and feed.
At a total of 14 time points, including time 0 (before SC administration of the test substance to the acclimated rats) and 4 hr, 8 hr, 24 hr, 3 d, 5 d, 1 w, 2 w, 4 w, 6 w, 8 w, and 12 w after SC administration of the test substance, 500 to 1,000 μL of blood was sampled from the jugular vein at each time point, and then immediately, the blood was centrifuged at 1,000 g for 10 minutes to separate the serum, which was then frozen and stored at −70° C.

[3] = tested on: MIA-OA model; assay: Trial for treatment of osteoarthritis (OA): weight-bearing and paw withdrawal tests taken together; format: in vivo, rats
Protocol: as §1, §2

[4] = tested on: MIA-OA model; assay: Paw withdrawal threshold test in osteoarthritis model; format: in vivo, rats; details: thereafter (later than 2 hours after administration)
Protocol: as §1, with “evaluated. […]” for “evaluated.”
The paw withdrawal response was measured before MIA administration (day 0) and 7 days and 14 days after MIA administration (before test drug administration), and the paw withdrawal response was evaluated after applying mechanical stimulation using an electronic von-Frey aesthesiometer (IITC Life Science, USA) 2 hours, 4 hours, 4 days, 7 days, 11 days, 14 days, 21 days, and 28 days after test drug administration. […] In the measurement method, an electronic von-Frey filament was applied perpendicular to the sole of the paw, the threshold (g force) value at which a rapid withdrawal response occurred was measured. The measurement results were analyzed as the ratio of g forces measured on the left and right paws (left/right). […]

C=C(C)[C@@H]1CCC(C)=C[C@H]1c1c(O)cc(CCCCC)cc1O [CBD solution, Cannabidiol]
body weight gain compared to positive control group [1]: tended to increase
concentration at 1 w ([2]; 1 w after single SC): 361 ng/mL
concentration at 2 w ([2]; 2 w after single SC): 0 ng/mL
concentration at 4 w ([2]; 4 w after single SC): 0 ng/mL
concentration at 7 w ([2]; 7 w after single SC): 0 ng/mL
concentration at 1 d ([2]; 1 d after single SC): 3940 ng/mL
therapeutic effect compared to the PC group ([3]; after the early stage / long term (to day 28)): no difference from the PC group
therapeutic effect compared to the PC group ([3]; early stage of administration): showed an effect
paw withdrawal threshold ratio compared to control group [4]: no difference
